# From PMC6934184, “Selective DNA-PKcs inhibition extends the therapeutic index of localized radiotherapy and chemotherapy” (The Journal of Clinical Investigation, 2019)
# Target: T1, EPHB2 (Homo sapiens, UniProt P29323)
# T1 construct: purchased Thermo Fisher Scientific (Life Technologies) SelectScreen
# Test: SelectScreen Z'LYTE
# Assay type: biochemical
# How it was run: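 SelectScreen broad panel; activity (Z'LYTE, Adapta) plus binding formats. ATP: Km app for CSF1R Z'LYTE; 10 for CAMK1 Adapta. Readout = % per kinase.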
# T1 sequence (P29323 19-1055): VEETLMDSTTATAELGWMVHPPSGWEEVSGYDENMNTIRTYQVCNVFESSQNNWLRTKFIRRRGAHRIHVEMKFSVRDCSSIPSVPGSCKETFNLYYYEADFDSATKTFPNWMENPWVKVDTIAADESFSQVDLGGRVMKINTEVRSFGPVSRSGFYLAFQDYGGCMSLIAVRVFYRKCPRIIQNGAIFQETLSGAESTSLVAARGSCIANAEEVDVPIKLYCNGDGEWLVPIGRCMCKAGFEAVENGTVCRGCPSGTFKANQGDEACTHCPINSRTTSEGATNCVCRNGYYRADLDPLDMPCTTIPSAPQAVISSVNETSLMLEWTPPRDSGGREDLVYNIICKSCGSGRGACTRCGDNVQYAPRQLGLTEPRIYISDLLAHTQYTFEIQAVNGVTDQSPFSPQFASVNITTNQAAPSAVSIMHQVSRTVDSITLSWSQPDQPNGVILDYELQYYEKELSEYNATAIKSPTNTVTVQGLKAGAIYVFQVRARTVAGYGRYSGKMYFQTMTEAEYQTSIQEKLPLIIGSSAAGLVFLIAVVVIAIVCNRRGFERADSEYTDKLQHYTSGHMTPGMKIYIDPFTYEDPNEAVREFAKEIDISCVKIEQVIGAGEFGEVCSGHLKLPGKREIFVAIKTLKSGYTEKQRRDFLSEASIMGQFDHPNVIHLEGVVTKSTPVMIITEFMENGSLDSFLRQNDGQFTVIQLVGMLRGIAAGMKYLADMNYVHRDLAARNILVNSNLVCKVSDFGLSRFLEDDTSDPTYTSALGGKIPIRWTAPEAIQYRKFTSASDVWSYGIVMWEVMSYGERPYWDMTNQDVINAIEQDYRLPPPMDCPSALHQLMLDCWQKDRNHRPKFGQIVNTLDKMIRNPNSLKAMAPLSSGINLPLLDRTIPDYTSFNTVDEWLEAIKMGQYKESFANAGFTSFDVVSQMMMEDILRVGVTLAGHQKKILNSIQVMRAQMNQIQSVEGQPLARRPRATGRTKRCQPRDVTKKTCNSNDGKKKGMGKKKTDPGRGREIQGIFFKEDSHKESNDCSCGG
smiles,measurement,value
CN(C(=O)CN1CCOCC1)c1ccc2sc3c(-c4cccc5c(=O)cc(N6CC7CCC(C6)O7)oc45)cccc3c2c1 [NU5455],inhibition at 1 µM,-0.1%
